Test results taken from paper PMC5248581 (PeerJ, 2017).
Where two headings read alike, the source gives them in different places.

Biological target: T1, human isolated umbilical vein (BK B2R; histamine H1R) (Homo sapiens, UniProt P30411)
T1 sequence (P30411 1-391): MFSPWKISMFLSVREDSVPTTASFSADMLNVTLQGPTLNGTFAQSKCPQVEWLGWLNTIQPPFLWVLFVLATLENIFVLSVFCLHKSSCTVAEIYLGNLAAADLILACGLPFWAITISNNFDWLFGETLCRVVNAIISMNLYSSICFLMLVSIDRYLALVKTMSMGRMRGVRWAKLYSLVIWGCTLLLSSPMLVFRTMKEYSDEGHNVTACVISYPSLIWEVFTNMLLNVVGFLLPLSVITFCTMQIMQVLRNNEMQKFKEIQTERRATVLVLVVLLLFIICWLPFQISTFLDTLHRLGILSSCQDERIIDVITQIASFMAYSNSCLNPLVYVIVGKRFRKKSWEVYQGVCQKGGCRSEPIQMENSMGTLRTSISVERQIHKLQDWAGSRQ
Excerpt: The institutional research ethics board (CHU de Québec) approved the anonymous use of human umbilical cord segments obtained after elective cesarean section deliveries (file number: 2012-323). Informed written consent was obtained from mothers.
Results are presented as means ± s.e.m. Radioligand binding data were fitted by nonlinear regression to a one-site competition equation using a least-square method (Prism 5.0; GraphPad Software Inc., San Diego, CA, USA) and IC50 values calculated from this procedure. The same computer program was used to draw concentration-effect curves (least square fitting of sigmoidal dose–response equation with variable slope) and to derive contractile EC50 values. Data describing baseline values of heart rate and mean arterial blood pressure and hypotensive responses to peptides in anesthetized rats were assessed by using one-way analysis of variance (ANOVA) followed by the Dunnett’s test (repeated comparison with a common control). The effects of drugs on the hypotensive responses to each dose of MK were assessed by using ANOVA followed by the Dunnett’s test.

Structure (SMILES)	effect of protease/peptidase inhibitor on contractile potency of MK (inhibitor 30 min before MK)	effect of protease/peptidase inhibitor on contractile potency of MK
CC(C)C[C@H](NC(=O)[C@H]1O[C@@H]1C(=O)O)C(=O)NCCCCN=C(N)N [E-64]	failed to change the concentration-effect curve of MK	
O=C([O-])CN(CCN(CC(=O)[O-])CC(=O)[O-])CC(=O)[O-].[Ca+2].[Na+].[Na+] [EDTA calcium disodium]		The same applied
O=C(N[C@H]1CCS[C@H]2CCC[C@@H](C(=O)O)N2C1=O)[C@@H](S)Cc1ccccc1 [omapatrilat]	failed to modify the contractile effect of MK	
Cl.NCCc1ccc(S(=O)(=O)F)cc1 [pefabloc SC]	failed to change the concentration-effect curve of MK	
CC(=O)N[C@@H](CC(C)C)C(=O)N[C@@H](CC(C)C)C(=O)N[C@H](C=O)CCCNC(=N)N [leupeptin]	The same applied	
